Three compounds from patent US20130338152A1, “FLUOROPHENYL BICYCLIC HETEROARYL COMPOUNDS” (IRM LLC, priority 2011, published 2013) can be followed below.

Read-outs that look alike come from different tables or passages of the source.

The target in assay [1] is T1, IGF1R (Homo sapiens, UniProt P08069). The assay is described as follows: Enzymatic kinase assay (filter-binding/flashplate). The assay is classed as biochemical. On the procedure:
(§1) Two methods were used to analyze phosphorylated peptides and proteins produced by the listed tyrosine and serine/threonine-specific protein kinases: either using a filter-binding assay (FB), or using a flashplate assay (FP). The activities of protein kinases were assayed in the presence or absence of inhibitors, by measuring the incorporation of ^33P from [γ^33P]ATP into appropriate substrates.
(§2) 96-well polypropylene microplates were used to assay the activity in the FB mode. To determine the inhibitory activity of compounds 10 μL of compound dilutions were pipetted into 96-well plates followed by the addition of 10 μL of assay mix and 10 μL of individual enzymes. With the addition of the enzymes the reactions were initiated and continued at RT. […] The final concentration of DMSO in the enzyme assays was 1%.
(§3) Flashplates are available as 96-well standard (STFPs) or as streptavidin-(SAFPs) or nickel coated FPs (NiFPs) from Perkin Elmer. STFPs are 96-well polystyrene microplates in which the interior of each well is permanently coated with a thin layer of polystyrene-based scintillant. Streptavidin flashplates (SAFP) are 96 or 384-well STFPs coated with streptavidin. SAFPs are suitable for a wide variety of assay applications which utilize biotinylated capture molecules. NiFP or nickel chelate flashplates are 96- or 384-well STFPs coated with nickel chelate. NiFPs are designed for in-plate, radiometric assays which utilize 4- or 6-histidine tagged proteins and peptides.
(§4) All kinase assays were performed in STFPs for 60 mins at RT and stopped with 50 μL of 0.5% H3PO4 except PKA which were carried out in polypropylene 96- and 384-well plates, respectively. […] All wells were then washed three times with 200 μL of 0.5% H3PO4 and the plates were dried at room temperature. The plates were sealed and counted in a microplate scintillation counter (TopCount NXT, TopCount NXT HTS). The final concentration of DMSO in the enzyme assays was 1%.

For a further assay, the target named is InsR (Homo sapiens, UniProt P06213). Briefly: Enzymatic kinase assay (filter-binding/flashplate). It is filed as biochemical. The method, then:
as §1, §2, §3, §4

In the next assay the target is RET (Homo sapiens, UniProt P07949). Briefly: Enzymatic kinase assay. The assay is classed as biochemical. The method, then: as §1, §2, §3, §4
Chain of RET (P07949 29-1114, species assumed): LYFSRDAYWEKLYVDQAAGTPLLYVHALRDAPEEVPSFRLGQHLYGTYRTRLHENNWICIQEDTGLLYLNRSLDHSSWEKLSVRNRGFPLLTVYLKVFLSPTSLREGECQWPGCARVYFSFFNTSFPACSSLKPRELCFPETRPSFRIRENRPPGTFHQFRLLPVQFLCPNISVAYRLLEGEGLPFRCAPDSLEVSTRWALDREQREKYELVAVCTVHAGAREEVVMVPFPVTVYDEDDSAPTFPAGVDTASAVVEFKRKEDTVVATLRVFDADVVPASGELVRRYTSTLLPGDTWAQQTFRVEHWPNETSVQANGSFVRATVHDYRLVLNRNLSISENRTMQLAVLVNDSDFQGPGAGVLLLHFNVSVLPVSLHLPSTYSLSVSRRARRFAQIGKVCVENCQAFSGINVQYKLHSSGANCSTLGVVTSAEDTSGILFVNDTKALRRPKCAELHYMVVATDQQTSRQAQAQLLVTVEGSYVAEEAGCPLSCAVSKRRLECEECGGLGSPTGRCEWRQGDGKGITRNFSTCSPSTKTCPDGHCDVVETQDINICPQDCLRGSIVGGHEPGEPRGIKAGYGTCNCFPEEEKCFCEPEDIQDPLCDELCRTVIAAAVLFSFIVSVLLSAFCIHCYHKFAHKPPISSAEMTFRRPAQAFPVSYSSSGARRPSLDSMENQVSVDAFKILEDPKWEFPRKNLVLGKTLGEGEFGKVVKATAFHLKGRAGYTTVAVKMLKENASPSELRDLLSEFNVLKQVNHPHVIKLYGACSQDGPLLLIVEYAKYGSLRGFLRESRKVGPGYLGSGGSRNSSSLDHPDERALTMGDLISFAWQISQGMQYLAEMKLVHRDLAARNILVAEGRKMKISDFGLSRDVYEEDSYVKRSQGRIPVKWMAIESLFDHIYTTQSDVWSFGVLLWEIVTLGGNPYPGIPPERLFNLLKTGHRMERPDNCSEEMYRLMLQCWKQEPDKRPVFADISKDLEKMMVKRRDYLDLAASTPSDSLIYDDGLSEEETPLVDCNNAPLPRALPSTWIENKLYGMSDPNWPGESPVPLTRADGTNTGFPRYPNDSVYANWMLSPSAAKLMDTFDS
The next assay addresses LCK (Homo sapiens, UniProt P06239). The assay is described as follows: Enzymatic kinase assay. It is filed as biochemical. The method, then: as §1, §2, §3, §4
In a further assay the target is cKIT (Homo sapiens, UniProt P10721). Briefly: Enzymatic kinase assay. The assay is classed as biochemical. On the procedure: as §1, §2, §3, §4
The target of the next assay is cMET (Homo sapiens, UniProt P08581). The assay is described as follows: Enzymatic kinase assay. It is filed as biochemical. The method, then:
as §1, §2, §3, §4

In a further assay the target is GSK3beta (Homo sapiens, UniProt P49841). The assay is described as follows: Enzymatic kinase assay. The assay is classed as biochemical. The method, then: as §1, §2, §3, §4
A further assay has as its target TYK2 (Homo sapiens, UniProt P29597). Briefly: Enzymatic kinase assay. It is filed as biochemical. The method, then: as §1, §2, §3, §4
A further assay has as its target JAK2 (Homo sapiens, UniProt O60674). The assay is described as follows: Enzymatic kinase assay. The assay is classed as biochemical. The method, then: as §1, §2, §3, §4
Another assay deals with P38a (Homo sapiens, UniProt Q16539). The assay is described as follows: Enzymatic kinase assay. It is filed as biochemical. The method, then: as §1, §2, §3, §4
A further assay deals with CDK2A (Homo sapiens, UniProt P24941). Briefly: Enzymatic kinase assay. The assay is classed as biochemical. On the procedure: as §1, §2, §3, §4
A further assay deals with PDGFRa (Homo sapiens, UniProt P16234). The assay is described as follows: Enzymatic kinase assay. It is filed as biochemical. The method, then:
as §1, §2, §3, §4

The target in the next assay is T2, Aurora A (Homo sapiens, UniProt O14965).
T2 sequence (O14965 1-403): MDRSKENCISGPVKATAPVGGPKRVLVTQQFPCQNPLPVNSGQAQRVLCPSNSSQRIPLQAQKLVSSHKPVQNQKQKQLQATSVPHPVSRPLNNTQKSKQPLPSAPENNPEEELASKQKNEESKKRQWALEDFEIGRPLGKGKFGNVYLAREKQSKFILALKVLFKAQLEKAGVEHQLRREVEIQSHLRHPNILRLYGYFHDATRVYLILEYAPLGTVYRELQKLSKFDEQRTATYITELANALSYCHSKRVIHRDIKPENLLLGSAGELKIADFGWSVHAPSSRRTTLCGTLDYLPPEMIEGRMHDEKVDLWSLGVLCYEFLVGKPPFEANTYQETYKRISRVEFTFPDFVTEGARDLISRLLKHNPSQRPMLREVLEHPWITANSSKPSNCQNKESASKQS
Briefly: Enzymatic kinase assay. It is filed as biochemical. On the procedure: as §1, §2, §3, §4

Another assay has as its target HER2 (Homo sapiens, UniProt P04626). The assay is described as follows: Enzymatic kinase assay. It is filed as biochemical. On the procedure:
as §1, §2, §3, §4

The next assay addresses ERK2 (Homo sapiens, UniProt P28482). The assay is described as follows: Enzymatic kinase assay. The assay is classed as biochemical. The method, then: as §1, §2, §3, §4
The next assay has as its target KDR (Homo sapiens, UniProt P35968). Briefly: Enzymatic kinase assay. It is filed as biochemical. On the procedure:
as §1, §2, §3, §4

In the next assay the target is MK2 (Homo sapiens, UniProt P49137). The assay is described as follows: Enzymatic kinase assay. The assay is classed as biochemical. The method, then:
as §1, §2, §3, §4

The next assay has as its target FGFR-4 (Homo sapiens, UniProt P22455). Briefly: Enzymatic kinase assay. It is filed as biochemical. On the procedure: as §1, §2, §3, §4
Another assay concerns the target cABLT315 (Homo sapiens, UniProt P00519, T315I). Briefly: Enzymatic kinase assay. It is filed as biochemical. The method, then: as §1, §2, §3, §4
For another assay, the target named is EphA4 (Homo sapiens, UniProt P54764). Briefly: Enzymatic kinase assay. The assay is classed as biochemical. On the procedure: as §1, §2, §3, §4
The target in a further assay is COT1 (Homo sapiens, UniProt P41279). The assay is described as follows: Enzymatic kinase assay. It is filed as biochemical. The method, then:
as §1, §2, §3, §4

Assay [2] addresses T1, IGF1R. Briefly: Cellular IGF-1R assay: inhibition of IGF1R phosphorylation in Hek293 cells, capture ELISA (MSD). It is filed as cell-based. Also on record: expressed in transfected cells; host or cells: Hek293 (Hek293-IGF1R). The following applies: IGF-triggered receptor phosphorylation.
The next assay deals with hERG channels (Homo sapiens, UniProt Q12809). Briefly: biochemical.
The target of a further assay is EphB4 (Homo sapiens, UniProt P54760). Briefly: Kinase assay of known compound and phenol metabolite X. The assay is classed as biochemical. The settings on record: metabolite comparison table.
The target in the next assay is C-Abl (Homo sapiens, UniProt P00519). The assay is described as above. The assay is classed as biochemical. The following applies: metabolite comparison table.
The target of another assay is c-src (Homo sapiens, UniProt P12931). The assay is described as above. The following applies: metabolite comparison table. It is filed as biochemical.
Where [3] appears, read: enzymatic, read-out: InsR IC50 values.
The mark [4] stands for this setting: enzymatic, read-out: RET IC50 values (converted).

Chain of InsR (P06213 28-1382, species assumed): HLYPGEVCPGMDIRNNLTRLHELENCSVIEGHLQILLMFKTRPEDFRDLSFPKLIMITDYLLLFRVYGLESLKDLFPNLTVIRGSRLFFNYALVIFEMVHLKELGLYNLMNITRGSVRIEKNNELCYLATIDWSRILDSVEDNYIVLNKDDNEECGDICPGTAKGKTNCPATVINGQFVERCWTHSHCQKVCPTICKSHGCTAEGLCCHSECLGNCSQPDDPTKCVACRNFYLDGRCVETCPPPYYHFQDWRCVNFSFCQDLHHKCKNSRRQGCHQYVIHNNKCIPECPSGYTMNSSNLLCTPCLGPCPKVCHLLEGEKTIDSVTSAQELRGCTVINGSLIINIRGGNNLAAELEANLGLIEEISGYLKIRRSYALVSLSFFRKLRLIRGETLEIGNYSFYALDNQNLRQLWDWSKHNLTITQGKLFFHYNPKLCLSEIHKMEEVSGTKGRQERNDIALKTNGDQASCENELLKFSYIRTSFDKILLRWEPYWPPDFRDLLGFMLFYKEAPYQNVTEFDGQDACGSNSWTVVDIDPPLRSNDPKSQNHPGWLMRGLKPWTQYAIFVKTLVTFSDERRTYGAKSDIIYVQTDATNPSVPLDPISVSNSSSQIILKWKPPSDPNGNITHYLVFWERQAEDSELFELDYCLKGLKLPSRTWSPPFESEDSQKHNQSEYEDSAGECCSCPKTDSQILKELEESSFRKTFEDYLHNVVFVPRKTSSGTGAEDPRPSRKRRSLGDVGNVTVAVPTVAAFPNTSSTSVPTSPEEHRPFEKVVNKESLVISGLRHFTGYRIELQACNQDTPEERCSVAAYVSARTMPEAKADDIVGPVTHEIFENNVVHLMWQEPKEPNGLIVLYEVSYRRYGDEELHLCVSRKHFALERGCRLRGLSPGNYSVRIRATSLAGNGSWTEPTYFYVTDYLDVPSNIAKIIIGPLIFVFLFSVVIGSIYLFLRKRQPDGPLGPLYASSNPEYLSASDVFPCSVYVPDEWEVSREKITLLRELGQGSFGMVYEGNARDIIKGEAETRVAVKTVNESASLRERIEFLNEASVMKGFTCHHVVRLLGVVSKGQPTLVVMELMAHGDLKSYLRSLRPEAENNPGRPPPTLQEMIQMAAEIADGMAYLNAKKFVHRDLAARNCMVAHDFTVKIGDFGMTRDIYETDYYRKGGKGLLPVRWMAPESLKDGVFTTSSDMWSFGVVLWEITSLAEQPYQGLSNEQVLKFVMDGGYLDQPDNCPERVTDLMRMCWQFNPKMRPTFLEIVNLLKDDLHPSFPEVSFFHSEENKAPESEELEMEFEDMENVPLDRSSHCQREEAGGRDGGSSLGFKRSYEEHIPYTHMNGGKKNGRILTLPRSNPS
T1 sequence (P08069 31-1367): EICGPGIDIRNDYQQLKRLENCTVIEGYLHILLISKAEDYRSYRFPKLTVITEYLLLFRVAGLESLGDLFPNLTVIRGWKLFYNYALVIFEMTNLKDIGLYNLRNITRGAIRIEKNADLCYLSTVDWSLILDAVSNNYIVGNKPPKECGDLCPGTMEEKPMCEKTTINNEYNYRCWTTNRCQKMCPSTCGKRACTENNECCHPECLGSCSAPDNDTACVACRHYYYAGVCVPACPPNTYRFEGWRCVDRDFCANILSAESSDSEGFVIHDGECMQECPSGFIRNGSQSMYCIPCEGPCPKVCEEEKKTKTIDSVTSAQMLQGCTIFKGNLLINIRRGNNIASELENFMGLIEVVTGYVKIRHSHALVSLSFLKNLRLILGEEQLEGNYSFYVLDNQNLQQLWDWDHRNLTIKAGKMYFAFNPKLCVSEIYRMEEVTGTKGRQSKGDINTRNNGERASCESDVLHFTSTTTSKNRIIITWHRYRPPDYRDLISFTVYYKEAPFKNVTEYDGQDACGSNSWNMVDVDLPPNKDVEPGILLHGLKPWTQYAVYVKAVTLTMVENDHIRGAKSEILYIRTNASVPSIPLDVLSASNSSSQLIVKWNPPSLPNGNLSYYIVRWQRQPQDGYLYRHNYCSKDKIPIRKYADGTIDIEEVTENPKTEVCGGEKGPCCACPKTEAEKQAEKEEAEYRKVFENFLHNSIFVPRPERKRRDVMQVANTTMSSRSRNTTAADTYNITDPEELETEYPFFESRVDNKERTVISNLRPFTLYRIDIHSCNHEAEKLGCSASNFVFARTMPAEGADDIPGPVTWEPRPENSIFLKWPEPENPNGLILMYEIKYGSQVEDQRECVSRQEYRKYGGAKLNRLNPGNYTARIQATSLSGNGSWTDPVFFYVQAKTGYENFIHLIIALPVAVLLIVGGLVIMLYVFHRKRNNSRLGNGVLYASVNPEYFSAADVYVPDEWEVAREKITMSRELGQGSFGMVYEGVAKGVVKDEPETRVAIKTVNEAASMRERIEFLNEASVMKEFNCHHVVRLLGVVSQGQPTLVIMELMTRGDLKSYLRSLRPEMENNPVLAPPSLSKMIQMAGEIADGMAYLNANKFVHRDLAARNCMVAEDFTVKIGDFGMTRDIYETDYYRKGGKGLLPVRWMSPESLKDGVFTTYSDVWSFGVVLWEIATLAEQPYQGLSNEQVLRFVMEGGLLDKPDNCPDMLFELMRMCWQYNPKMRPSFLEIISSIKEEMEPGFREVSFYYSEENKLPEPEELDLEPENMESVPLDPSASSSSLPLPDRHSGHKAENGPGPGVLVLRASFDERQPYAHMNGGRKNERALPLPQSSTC
Chain of cMET (P08581 25-1390): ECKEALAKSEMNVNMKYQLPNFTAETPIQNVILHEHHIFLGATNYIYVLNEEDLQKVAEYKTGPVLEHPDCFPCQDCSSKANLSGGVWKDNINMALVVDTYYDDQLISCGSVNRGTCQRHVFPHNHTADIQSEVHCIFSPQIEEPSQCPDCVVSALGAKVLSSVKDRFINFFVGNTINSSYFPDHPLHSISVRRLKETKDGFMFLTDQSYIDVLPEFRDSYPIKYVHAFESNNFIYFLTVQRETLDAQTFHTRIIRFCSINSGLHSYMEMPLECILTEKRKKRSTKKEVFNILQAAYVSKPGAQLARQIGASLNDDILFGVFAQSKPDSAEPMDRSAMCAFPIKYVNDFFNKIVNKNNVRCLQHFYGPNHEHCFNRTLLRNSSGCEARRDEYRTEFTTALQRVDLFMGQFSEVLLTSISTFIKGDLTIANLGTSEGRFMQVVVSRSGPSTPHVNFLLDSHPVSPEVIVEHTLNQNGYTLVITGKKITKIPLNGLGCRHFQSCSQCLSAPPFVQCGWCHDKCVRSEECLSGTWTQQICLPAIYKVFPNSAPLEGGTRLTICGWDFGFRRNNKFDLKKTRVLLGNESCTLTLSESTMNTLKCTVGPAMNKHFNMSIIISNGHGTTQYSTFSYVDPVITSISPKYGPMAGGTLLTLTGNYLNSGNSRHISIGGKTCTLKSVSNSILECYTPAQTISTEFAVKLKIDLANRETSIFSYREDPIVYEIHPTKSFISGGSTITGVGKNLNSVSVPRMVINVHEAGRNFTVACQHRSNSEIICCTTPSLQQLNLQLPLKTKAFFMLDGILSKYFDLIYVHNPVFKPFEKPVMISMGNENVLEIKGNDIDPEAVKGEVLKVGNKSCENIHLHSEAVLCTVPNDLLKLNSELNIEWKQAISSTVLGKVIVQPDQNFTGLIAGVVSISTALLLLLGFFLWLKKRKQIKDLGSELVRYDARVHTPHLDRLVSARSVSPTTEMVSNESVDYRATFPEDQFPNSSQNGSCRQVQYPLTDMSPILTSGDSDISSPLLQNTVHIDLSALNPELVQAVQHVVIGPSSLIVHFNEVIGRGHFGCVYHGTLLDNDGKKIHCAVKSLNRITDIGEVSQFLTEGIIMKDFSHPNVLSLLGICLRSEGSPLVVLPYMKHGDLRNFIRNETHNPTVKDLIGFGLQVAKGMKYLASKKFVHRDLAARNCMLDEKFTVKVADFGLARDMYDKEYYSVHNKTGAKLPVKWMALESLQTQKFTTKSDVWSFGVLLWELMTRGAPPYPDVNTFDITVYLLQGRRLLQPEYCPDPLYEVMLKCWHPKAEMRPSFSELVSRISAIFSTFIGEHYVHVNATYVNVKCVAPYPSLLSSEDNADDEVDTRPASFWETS

As to `Nc1ncnc2c1c(-c1cccc(OC[C@@H]3CCCO3)c1F)cn2[C@H]1C[C@@H](CN2CC[S+]([O-])CC2)C1` [Example 6, 5-{2-Fluoro-3-[(S)-1-(tetrahydro-furan-2-yl)methoxy]-phenyl}-7-[cis-3-(1-oxo-thiomorpholin-4-ylmethyl)-cyclobutyl]-7H-pyrrolo[2,3-d]pyrimidin-4-ylamine], the 50% inhibitory concentration (IC50) was 0.0038 µM at IGF1R [1]; 0.039 µM at InsR (setting [3]); 3.4 µM at RET (setting [4]); 8.6 µM on LCK; 0.77 µM on cKIT; over 10 µM against cMET. In addition, the IC50 on GSK3beta was over 10 µM; on TYK2 it was over 10 µM; on JAK2 it was over 10 µM; at P38a, over 10 µM; on CDK2A it was over 10 µM; at PDGFRa it was 8.3 µM. The IC50 against Aurora A is over 10 µM; against HER2, over 10 µM; at ERK2, over 10 µM; on KDR it was 5.7 µM; on MK2 it was over 10 µM; against FGFR-4, over 10 µM. For the same compound, the IC50 at cABLT315 was over 10 µM; against EphA4, over 10 µM; against COT1, over 10 µM; against IGF1R [2], 0.01 µM; against hERG channels it was over 30 µM.

Take `[2H]C1([2H])C([2H])([2H])C2(COc3cccc(-c4cn([C@H]5C[C@@H](N6CC[S+]([O-])CC6)C5)c5ncnc(N)c45)c3F)OC1([2H])C([2H])([2H])C2([2H])[2H]` [Example 18, d9-5-[2-Fluoro-3-(7-oxa-bicyclo[2.2.1]hept-1-ylmethoxy)-phenyl]-7-[cis-3-(1-oxo-thiomorpholin-4-yl)-cyclobutyl]-7H-pyrrolo[2,3-d]pyrimidin-4-ylamine]: the IC50 was 0.015 µM on IGF1R [1]; 0.043 µM on InsR (setting [3]); over 10 µM on RET (setting [4]); over 10 µM at LCK; over 10 µM on cKIT; over 10 µM at cMET. Further, the half-maximal inhibitory concentration (IC50) against GSK3beta, at TYK2, against JAK2, against P38a, at CDK2A and against PDGFRa was over 10 µM throughout. The IC50 on Aurora A, against HER2, on ERK2, against KDR, at MK2 and at FGFR-4 was over 10 µM throughout. For the same compound, the IC50 against cABLT315 was over 10 µM; on EphA4 it was over 10 µM; against COT1, over 10 µM; on IGF1R [2] it was 0.004 µM; on hERG channels, over 30 µM.

For `Nc1ncnc2c1c(-c1cccc(OCc3ccccc3)c1)cn2[C@H]1C[C@@H](CN2CCC2)C1` [WO02/092599, ex. 102], the IC50 on InsR (metabolite comparison table, read-out: InsR IC50) was 0.23 µM; at RET (metabolite comparison table, read-out: RET IC50) it was 4.4 µM; at EphB4, over 10 µM; on C-Abl it was over 10 µM; on c-src it was over 10 µM.

A word on the IC50: it is the concentration at which inhibition is half-maximal.
